Measured values published in patent US20230279025A1, “KRAS G12D INHIBITORS” (Mirati Therapeutics, Inc., priority 2020, published 2023).

Legend:
KRas G12D [1] = biological target: T1, KRas G12D (Homo sapiens (Human), UniProt P01116, G12D); assay: KRas G12D Binding Assay (TR-FRET displacement of Cy5 labelled tracer); conditions: GDP-loaded KRAS G12D (amino acids 1:169), 60 minute incubation at 22° C.
Procedure: After a 60 minute incubation at 22° C., the reaction was measured using a PerkinElmer EnVision multimode plate reader via TR-FRET dual wavelength detection, and the percent of control (POC) calculated using a ratiometric emission factor. […] The POC values were fit to a 4-parameter logistic curve and the IC50 value was determined as the concentration where the curve crosses 50 POC.
ND stands for “not determined.”
Target sequence in this assay (P01116 other isoform, or with tags, fused parts or gaps G12D): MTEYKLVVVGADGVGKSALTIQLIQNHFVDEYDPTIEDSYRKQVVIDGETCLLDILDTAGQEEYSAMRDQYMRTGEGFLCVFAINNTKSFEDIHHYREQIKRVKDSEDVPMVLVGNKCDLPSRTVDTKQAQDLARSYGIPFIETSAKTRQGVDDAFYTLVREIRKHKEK

KRas G12D [2] = biological target: T1, KRas G12D; assay: KRas G12D Surface Plasmon Resonance (SPR) Binding Assay; conditions: Biacore T200, immobilized biotinylated KRAS protein, 1:1 binding model
Procedure: Briefly, 1L of 1.05X HBS-Mg buffer (262.5 mM Bioultra Hepes, pH 7.5, 157.5 mM NaCl, 105 mM MgCl2, 0.525 mM TCEP, 0.0305% Brij-35) was prepared and filter sterilized using a 0.22 μm bottle top filter. Approximately 50 mL of 1.05X HBS-Mg buffer was removed and saved for future dilutions. A 50 mL aliquot of DMSO (Sigma Aldrich DMSO Lot. #SHBK2079) was added and continued to stir for 10 minutes, creating the final 1.0X HBS-Mg buffer (250 mM Bioultra Hepes pH 7.5, 150 mM NaCl, 100 mM MgCl2, 0.5 mM TCEP, 0.03% Brij-35).
Biacore T200 instrument was primed using 1.0X HBS-Mg buffer before docking a GE Streptavidin (SA) chip and then primed two additional times prior to beginning the immobilization step. All immobilized protein mixtures were created using 3-5 mg/mL Biotinylated Avidin-tagged KRAS protein using the following immobilization settings: SA chip type, 1 flow cells per cycle, 720 second contact time, and 5 ul/min flow rate. Normalization of the detector was also performed during the immobilization step using the GE BiaNormalize solution.
All compounds were diluted to 10 mM in 100% DMSO prior to being diluted 20X in 1.05X buffer. Another 10X dilution was created using 1.0X buffer prior to performing a series of 3X dilutions to create a compound concentration curve using the following assay settings: 20C analysis temperature, General Settings=10 Hz data collection rate and multi-detection; Assay Steps=all set to LMW kinetics; Cycle Types=LMW kinetics (60 s contact time, 120 s dissociation time, 100 ul/min flow rate, extra wash after injection with 50% DMSO, flow path 1,2,3,4); Flow path detection=2-1, 4-3). Data evaluation was performed using the Biacore T200 Evaluation software and data fit to 1:1 binding model. ND=not determined.
Target sequence in this assay (P01116-2 other isoform, or with tags, fused parts or gaps G12D): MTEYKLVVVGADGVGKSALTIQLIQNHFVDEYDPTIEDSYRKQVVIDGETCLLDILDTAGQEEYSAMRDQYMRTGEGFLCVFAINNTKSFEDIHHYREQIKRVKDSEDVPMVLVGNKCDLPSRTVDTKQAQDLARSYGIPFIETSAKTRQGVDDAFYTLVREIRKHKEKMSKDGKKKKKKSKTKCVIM

Structure (SMILES) | IC50 (KRas G12D [1]) [nM] | Kd (KRas G12D [2]) [nM]
Oc1cc(-c2ncc3c(N4C[C@H]5CC[C@@H](C4)N5)nc(OCC4(C(F)(F)F)CC4)nc3c2F)c2ccccc2c1 [Example 51, 4-(4-((1R,5S)-3,8-diazabicyclo[3.2.1]octan-3-yl)-8-fluoro-2-((1-(trifluoromethyl)cyclopropyl)methoxy)pyrido[4,3-d]pyrimidin-7-yl)naphthalen-2-ol] | 292 | 611
COCCN1CCC(Oc2nc(N3C[C@H]4CC[C@@H](C3)N4)c3cnc(-c4cccc5ccccc45)c(F)c3n2)CC1 [Example 39, 4-((1R,5S)-3,8-diazabicyclo[3.2.1]octan-3-yl)-8-fluoro-2-((1-(2-methoxyethyl)piperidin-4-yl)oxy)-7-(naphthalen-1-yl)pyrido[4,3-d]pyrimidine] | > 10000 | 67800
CN1CCC[C@H]1COc1nc(N2C[C@H]3CC[C@@H](C2)N3)c2cnc(-c3cccc4ccc(F)cc34)c(F)c2n1 [Example 19, 4-((1R,5S)-3,8-diazabicyclo[3.2.1]octan-3-yl)-8-fluoro-7-(7-fluoronaphthalen-1-yl)-2-(((S)-1-methylpyrrolidin-2-yl)methoxy)pyrido[4,3-d]pyrimidine] | 122 | 665
CC(=O)N1CCC(Oc2nc(N3C[C@H]4CC[C@@H](C3)N4)c3cnc(-c4cc(O)cc5ccccc45)c(F)c3n2)CC1 [Example 78, 1-(4-((4-((1R,5S)-3,8-diazabicyclo[3.2.1]octan-3-yl)-8-fluoro-7-(3-hydroxynaphthalen-1-yl)pyrido[4,3-d]pyrimidin-2-yl)oxy)piperidin-1-yl)ethan-1-one] | 358 | 368
Cc1cccc2cccc(-c3ncc4c(N5C[C@H]6CC[C@@H](C5)N6)nc(OC[C@@H]5CCCN5C)nc4c3F)c12 [Example 15, 4-((1R,5S)-3,8-diazabicyclo[3.2.1]octan-3-yl)-8-fluoro-7-(8-methylnaphthalen-1-yl)-2-(((S)-1-methylpyrrolidin-2-yl)methoxy)pyrido[4,3-d]pyrimidine] | 260 | 208
Fc1c(-c2cccc3cccc(Cl)c23)ncc2c(N3C[C@H]4CC[C@@H](C3)N4)nc(OCC34CCCN3CCC4)nc12 [Example 45, 4-((1R,5S)-3,8-diazabicyclo[3.2.1]octan-3-yl)-7-(8-chloronaphthalen-1-yl)-8-fluoro-2-((tetrahydro-1H-pyrrolizin-7a(5H)-yl)methoxy)pyrido[4,3-d]pyrimidine] | 5.5 | 5.1
OC[C@@H](O)COc1nc(N2C[C@H]3CC[C@@H](C2)N3)c2cnc(-c3cccc4cccc(Cl)c34)c(F)c2n1 [Example 56, (R)-3-((4-((1R,5S)-3,8-diazabicyclo[3.2.1]octan-3-yl)-7-(8-chloronaphthalen-1-yl)-8-fluoropyrido[4,3-d]pyrimidin-2-yl)oxy)propane-1,2-diol] | 5920 | 5170
CN(C)CCOc1nc(N2C[C@H]3CC[C@@H](C2)N3)c2cnc(-c3cccc4cccc(Cl)c34)c(F)c2n1 [Example 107, 2-((4-((I R,5S)-3,8-diazabicyclo[3.2.1]octan-3-yl)-7-(8-chloronaphthalen-1-yl)-8-fluoropyrido[4,3-d]pyrimidin-2-yl)oxy)-N,N-dimethylethan-1-amine] | 2120 | 1440
Oc1cc(-c2ncc3c(N4C[C@H]5CC[C@@H](C4)N5)nc(OCC(F)(F)F)nc3c2F)c2ccccc2c1 [Example 48, 4-(4-((1R,5S)-3,8-diazabicyclo[3.2.1]octan-3-yl)-8-fluoro-2-(2,2,2-trifluoroethoxy)pyrido[4,3-d]pyrimidin-7-yl)naphthalen-2-ol] | 434 | 931
CO[C@@H]1C[C@@H](COc2nc(N3C[C@H]4CC[C@@H](C3)N4)c3cnc(-c4cccc5cccc(Cl)c45)c(F)c3n2)N(C)C1 [Example 34, 4-((1R,5S)-3,8-diazabicyclo[3.2.1]octan-3-yl)-7-(8-chloronaphthalen-1-yl)-8-fluoro-2-(((2S,4R)-4-methoxy-1-methylpyrrolidin-2-yl)methoxy)pyrido[4,3-d]pyrimidine] | 135 | 119
Oc1cc(-c2ncc3c(N4C[C@H]5CC[C@@H](C4)N5)nc(OCC45CCCN4CCC5)nc3c2F)c2ccccc2c1 [Example 109, 4-(4-((1R,5S)-3,8-diazabicyclo[3.2.1]octan-3-yl)-8-fluoro-2-((tetrahydro-1H-pyrrolizin-7a(5H)-yl)methoxy)pyrido[4,3-d]pyrimidin-7-yl)naphthalen-2-ol bis(2,2,2-trifluoroacetate)] | 0.5 | > 500000
CN1CCC[C@H]1COc1nc(N2C[C@H]3CC[C@@H](C2)N3)c2cnc(-c3cccc4cccc(Cl)c34)c(F)c2n1 [Example 132, 4-((1R,5S)-3,8-diazabicyclo[3.2.1]octan-3-yl)-7-(8-chloronaphthalen-1-yl)-8-fluoro-2-(((S)-1-methylpyrrolidin-2-yl)methoxy)pyrido[4,3-d]pyrimidine] | 60.5 | 64.7
Cn1ccc(COc2nc(N3C[C@H]4CC[C@@H](C3)N4)c3cnc(-c4cc(O)cc5ccccc45)c(F)c3n2)n1 [Example 8, 4-(4-((1R,5S)-3,8-diazabicyclo[3.2.1]octan-3-yl)-8-fluoro-2-((1-methyl-1H-pyrazol-3-yl)methoxy)pyrido[4,3-d]pyrimidin-7-yl)naphthalen-2-ol] | 1520 | 2140
Fc1c(-c2cncc3cccc(Cl)c23)ncc2c(N3C[C@H]4CC[C@@H](C3)N4)nc(OCC34CCCN3CCC4)nc12 [Example 33, 4-((1R,5S)-3,8-diazabicyclo[3.2.1]octan-3-yl)-7-(5-chloroisoquinolin-4-yl)-8-fluoro-2-((tetrahydro-1H-pyrrolizin-7a(5H)-yl)methoxy)pyrido[4,3-d]pyrimidine bis(2,2,2-trifluoroacetate)] | 21.1 | 71.7
CN1C[C@H](F)C[C@H]1COc1nc(N2C[C@H]3CC[C@@H](C2)N3)c2cnc(-c3cccc4cccc(Cl)c34)c(F)c2n1 [Example 115, 4-((1R,5S)-3,8-diazabicyclo[3.2.1]octan-3-yl)-7-(8-chloronaphthalen-1-yl)-8-fluoro-2-(((2S,4R)-4-fluoro-1-methylpyrrolidin-2-yl)methoxy)pyrido[4,3-d]pyrimidine] | 174 | 333000
OC[C@H](O)COc1nc(N2C[C@H]3CC[C@@H](C2)N3)c2cnc(-c3cccc4cccc(Cl)c34)c(F)c2n1 [Example 55, (S)-3-((4-((1R,5S)-3,8-diazabicyclo[3.2.1]octan-3-yl)-7-(8-chloronaphthalen-1-yl)-8-fluoropyrido[4,3-d]pyrimidin-2-yl)oxy)propane-1,2-diol] | 6130 | 22400
Oc1cc(-c2ncc3c(N4C[C@H]5CC[C@@H](C4)N5)nc(OCCc4ccccc4F)nc3c2F)c2ccccc2c1 [Example 67, 4-(4-((1R,5S)-3,8-diazabicyclo[3.2.1]octan-3-yl)-8-fluoro-2-(2-fluorophenethoxy)pyrido[4,3-d]pyrimidin-7-yl)naphthalen-2-ol] | 1250 | 1150
COc1nc(N2C[C@H]3CC[C@@H](C2)N3)c2cnc(-c3cccc4cccc(C)c34)c(F)c2n1 [Example 317, 4-((1R,5S)-3,8-diazabicyclo[3.2.1]octan-3-yl)-8-fluoro-2-methoxy-7-(8-methylnaphthalen-1-yl)pyrido[4,3-d]pyrimidine] | > 10000 | 91300
Oc1cc(-c2ncc3c(N4C[C@H]5CC[C@@H](C4)N5)nc(OCCCN4CCOCC4)nc3c2F)c2ccccc2c1 [Example 22, 4-(4-((1R,5S)-3,8-diazabicyclo[3.2.1]octan-3-yl)-8-fluoro-2-(3-morpholinopropoxy)pyrido[4,3-d]pyrimidin-7-yl)naphthalen-2-ol] | 50.3 | 19.6
CN1C[C@H](F)C[C@H]1COc1nc(N2C[C@H]3CC[C@@H](C2)N3)c2cnc(-c3cc(O)cc4ccccc34)c(F)c2n1 [Example 16, 4-(4-((1R,5S)-3,8-diazabicyclo[3.2.1]octan-3-yl)-8-fluoro-2-(((2S,4R)-4-fluoro-1-methylpyrrolidin-2-yl)methoxy)pyrido[4,3-d]pyrimidin-7-yl)naphthalen-2-ol] | 54.1 | 31.3
Fc1c(-c2cccc3cccc(Cl)c23)ncc2c(N3C[C@H]4CC[C@@H](C3)N4)nc(OC[C@@H]3CCCN3Cc3ccccc3)nc12 [Example 97, 2-(((S)-1-benzylpyrrolidin-2-yl)methoxy)-4-((1R,5S)-3,8-diazabicyclo[3.2.1]octan-3-yl)-7-(8-chloronaphthalen-1-yl)-8-fluoropyrido[4,3-d]pyrimidine] | 934 | 5920
